The test system of data set [1] is 4 MRSA NEO-resistant strains. Briefly: MIC against the MRSA NEO-resistant strains. The format is cell-based, Staphylococcus aureus.
Data set [2] concerns E. coli and the human cytosolic A-site. Nature of the data set: Selectivity factor, E. coli versus human cytosolic A-site. It is filed as binding. To be noted: 5.75 × IC50(human)/IC50(E. coli); above 5.75 = selectivity to bacterial A-site.
In data set [3] the target is APH(2″)-Ia (Staphylococcus aureus, UniProt P0A0C1). Nature of the data set: AME modification of conjugates, APH. It is filed as biochemical.
The test system of data set [4] is E. coli H4H. Briefly: MIC and growth inhibition, microdilution. The format is cell-based, Escherichia coli. Conditions: concentration not given. In general terms: Dilution methods test growth across graded concentrations, often in twofold steps.
The test system of data set [5] is L1-stage C. elegans. Nature of the data set: Toxicity in C. elegans, MTT assay. It is filed as in vivo, Caenorhabditis elegans. Conditions: lowest concentrations used (3.13 – 1.56 μM), 24 h. (Tetrazolium dyes change colour on reduction, which living cells bring about.)
Data set [6] concerns rRNA A-site. To be noted: read-out: IC50, F-NEO screening test; range over rRNA A-sites; cited from earlier work.

Consider eight compounds from paper PMC6503653 (European journal of medicinal chemistry, 2018).

APH(2″)-Ia, sequence (P0A0C1 whole entry): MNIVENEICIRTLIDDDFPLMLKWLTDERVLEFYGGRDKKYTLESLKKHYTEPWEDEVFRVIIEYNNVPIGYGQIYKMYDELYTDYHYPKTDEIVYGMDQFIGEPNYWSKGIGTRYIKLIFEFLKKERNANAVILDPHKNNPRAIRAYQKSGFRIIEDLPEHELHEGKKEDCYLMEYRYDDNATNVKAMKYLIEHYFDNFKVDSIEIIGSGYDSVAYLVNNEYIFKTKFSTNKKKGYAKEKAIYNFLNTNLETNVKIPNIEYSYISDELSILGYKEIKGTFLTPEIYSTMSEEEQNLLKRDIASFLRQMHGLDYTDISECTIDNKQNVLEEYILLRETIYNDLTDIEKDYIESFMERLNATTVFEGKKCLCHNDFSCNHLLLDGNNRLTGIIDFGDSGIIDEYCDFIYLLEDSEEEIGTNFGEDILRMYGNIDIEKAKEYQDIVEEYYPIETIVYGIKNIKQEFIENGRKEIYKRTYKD

Consider `NC[C@@H]1O[C@H](O[C@H]2[C@@H](O)[C@H](O[C@@H]3[C@@H](O)[C@H](N)C[C@H](N)[C@H]3O[C@H]3O[C@H](CN)[C@@H](O)[C@H](O)[C@H]3N)O[C@@H]2CNC(=O)CCCc2ccc3ccc4cccc5ccc2c3c45)[C@H](N)[C@@H](O)[C@@H]1O` [Compound 12], for which the “MIC values times lower than that of NEO” value in data set [1] is recorded as 4-16 times. The same compound returned a Selectivity factor in data set [2] of 6.76.
The corresponding values for `NC[C@@H]1O[C@H](O[C@H]2[C@@H](O)[C@H](O[C@@H]3[C@@H](O)[C@H](N)C[C@H](N)[C@H]3O[C@H]3O[C@H](CN)[C@@H](O)[C@H](O)[C@H]3N)O[C@@H]2CSCCNC(=O)Cc2ccc3ccc4cccc5ccc2c3c45)[C@H](N)[C@@H](O)[C@@H]1O` [Compound 13] are 4-16 times and 5.87.
Take `NC[C@@H]1O[C@H](O[C@H]2[C@@H](O)[C@H](O[C@@H]3[C@@H](O)[C@H](N)C[C@H](N)[C@H]3O[C@H]3O[C@H](CN)[C@@H](O)[C@H](O)[C@H]3N)O[C@@H]2CSCCNC(=O)CCCc2ccc3ccc4cccc5ccc2c3c45)[C@H](N)[C@@H](O)[C@@H]1O` [Compound 15]: the “MIC values times lower than that of NEO” value in data set [1] is 4-16 times. In addition, in data set [3], the “modification by APH(2″)-Ia relative to NEO” value was “increased activity”. Besides, the Selectivity factor in data set [2] came to 6.80. The “reduction in growth / growth inhibition” value in data set [4] was “* A 30% reduction in growth was observed for compounds 15 and 16 with E. coli H4H”.
For the compound `NC[C@@H]1O[C@H](O[C@H]2[C@@H](O)[C@H](O[C@@H]3[C@@H](O)[C@H](N)C[C@H](N)[C@H]3O[C@H]3O[C@H](CN)[C@@H](O)[C@H](O)[C@H]3N)O[C@@H]2CSCCNC(=S)NCCCCCCNC(=O)CCCc2ccc3ccc4cccc5ccc2c3c45)[C@H](N)[C@@H](O)[C@@H]1O` [Compound 16], the “MIC values times lower than that of NEO” value in data set [1] is on record as 4-16 times. The Selectivity factor in data set [2] is on record as 5.70. In addition, in data set [4], the “reduction in growth / growth inhibition” value was “* A 30% reduction in growth was observed for compounds 15 and 16 with E. coli H4H”.
In the case of `NC[C@@H]1O[C@H](O[C@H]2[C@@H](O)[C@H](O[C@@H]3[C@@H](O)[C@H](N)C[C@H](N)[C@H]3O[C@H]3O[C@H](CN)[C@@H](O)[C@H](O)[C@H]3N)O[C@@H]2CO)[C@H](N)[C@@H](O)[C@@H]1O` [NEO, Neomycin B], the “toxicity / larvae viability compared with the untreated control” value in data set [5] is reported as “no significant difference”. Also, the IC50 in data set [6] was 68 to 114 nM.
With `NC[C@@H]1O[C@H](O[C@H]2[C@@H](O)[C@H](O[C@@H]3[C@@H](O)[C@H](N)C[C@H](N)[C@H]3O[C@H]3O[C@H](CN)[C@@H](O)[C@H](O)[C@H]3N)O[C@@H]2CNC(=O)Cc2ccc3ccc4cccc5ccc2c3c45)[C@H](N)[C@@H](O)[C@@H]1O` [Compound 10], the Selectivity factor in data set [2] is 7.12.
Still for that read-out and setting: the same measure for `NC[C@@H]1O[C@H](O[C@H]2[C@@H](O)[C@H](O[C@@H]3[C@@H](O)[C@H](N)C[C@H](N)[C@H]3O[C@H]3O[C@H](CN)[C@@H](O)[C@H](O)[C@H]3N)O[C@@H]2CNC(=O)CCc2ccc3ccc4cccc5ccc2c3c45)[C@H](N)[C@@H](O)[C@@H]1O` [Compound 11]: 8.29; for `NC[C@@H]1O[C@H](O[C@H]2[C@@H](O)[C@H](O[C@@H]3[C@@H](O)[C@H](N)C[C@H](N)[C@H]3O[C@H]3O[C@H](CN)[C@@H](O)[C@H](O)[C@H]3N)O[C@@H]2CSCCNC(=O)CCc2ccc3ccc4cccc5ccc2c3c45)[C@H](N)[C@@H](O)[C@@H]1O` [Compound 14]: 6.14.

As usually defined, the IC50 is the concentration needed to halve the response being measured.
